Results published in ChEMBL document CHEMBL1165912, “Synthesis and binding analysis of unique AG2 pentasaccharide to human Siglec-2 using NMR techniques” (Bioorg Med Chem, 2010).

Biological target: T1, B-cell receptor CD22 (Homo sapiens, UniProt P20273)
T1 sequence (P20273 whole entry): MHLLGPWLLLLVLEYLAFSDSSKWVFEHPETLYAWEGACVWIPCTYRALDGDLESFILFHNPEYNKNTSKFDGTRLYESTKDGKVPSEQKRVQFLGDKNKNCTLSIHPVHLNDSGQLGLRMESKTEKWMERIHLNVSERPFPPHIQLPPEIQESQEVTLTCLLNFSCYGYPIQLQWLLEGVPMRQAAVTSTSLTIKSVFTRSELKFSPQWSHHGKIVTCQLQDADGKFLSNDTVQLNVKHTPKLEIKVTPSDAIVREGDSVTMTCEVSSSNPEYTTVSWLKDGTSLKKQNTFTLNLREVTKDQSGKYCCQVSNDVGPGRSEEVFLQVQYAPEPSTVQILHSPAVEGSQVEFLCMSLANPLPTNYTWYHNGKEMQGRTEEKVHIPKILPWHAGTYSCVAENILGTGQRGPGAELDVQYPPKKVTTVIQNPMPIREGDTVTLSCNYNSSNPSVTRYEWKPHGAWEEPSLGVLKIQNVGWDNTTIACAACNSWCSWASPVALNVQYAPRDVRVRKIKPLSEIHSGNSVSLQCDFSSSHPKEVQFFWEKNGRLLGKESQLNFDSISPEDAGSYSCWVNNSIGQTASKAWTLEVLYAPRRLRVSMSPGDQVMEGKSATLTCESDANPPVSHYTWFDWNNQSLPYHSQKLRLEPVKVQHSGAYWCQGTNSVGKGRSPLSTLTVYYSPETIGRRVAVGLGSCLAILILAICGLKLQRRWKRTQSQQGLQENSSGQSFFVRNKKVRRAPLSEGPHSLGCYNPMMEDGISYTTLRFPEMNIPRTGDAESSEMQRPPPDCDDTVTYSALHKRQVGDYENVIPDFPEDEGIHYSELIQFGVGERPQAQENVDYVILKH
Test: Binding affinity to human SIGLEC2 by saturation transfer difference-titration assay

CC(=O)N[C@H]1[C@@H]([C@H](O)[C@H](O)CO)O[C@@](O[C@H]2[C@@H](O)[C@@H](CO)O[C@@H](O[C@H]3[C@H](O)[C@@H](O)[C@H](OCC[Si](C)(C)C)O[C@@H]3CO)[C@@H]2O)(C(=O)O)C[C@@H]1O[C@H]1O[C@H](CO)[C@H](O)[C@H](O[C@@H]2O[C@@H]([C@H](O)CO)[C@H](O)[C@H]2O)[C@H]1O (stereo in doubt)
Kd: 2 mM
